{"source": "patent US20060116331A1", "about": "“Glycosylceramide analogues” (BIOMIRA, INC., priority 2002, published 2006)", "origin": "cited, not measured here", "key": {"[1]": {"system": "Vα14 NKT cells", "conditions": "for CD1d-restricted, TCR-mediated activation of Vα14 NKT cells (ability to elicit natural killer cell activity): Kawano et al. (1997); for stimulation of Vα14 NKT cells: structure-activity relationship studies"}, "[2]": {"system": "NKT cells"}, "[3]": {"system": "spleen cells", "conditions": "Ijima et al. (1998)"}}, "note": "“Also recorded” adds a separate entry of the source."}
{"molecule": "α-glucosylceramide [α-GlcCer]", "values": [{"measurement": "CD1d-restricted, TCR-mediated activation of Vα14 NKT cells (ability to elicit natural killer cell activity)", "setting": "[1]", "result": "active"}, {"measurement": "stimulation of Vα14 NKT cells", "setting": "[1]", "result": "readily stimulate"}]}
{"molecule": "Galα1-2Galα1-1′Cer", "values": [{"measurement": "CD1d-restricted, TCR-mediated activation of Vα14 NKT cells (ability to elicit natural killer cell activity)", "setting": "[1]", "result": "active"}]}
{"molecule": "Galα1-6Galα1-1′Cer", "values": [{"measurement": "CD1d-restricted, TCR-mediated activation of Vα14 NKT cells (ability to elicit natural killer cell activity)", "setting": "[1]", "result": "active"}]}
{"molecule": "Galα1-6Glcα1-1′Cer", "values": [{"measurement": "CD1d-restricted, TCR-mediated activation of Vα14 NKT cells (ability to elicit natural killer cell activity)", "setting": "[1]", "result": "active"}]}
{"molecule": "α-mannosylceramide [α-ManCer]", "values": [{"measurement": "CD1d-restricted, TCR-mediated activation of Vα14 NKT cells (ability to elicit natural killer cell activity)", "setting": "[1]", "result": "inactive"}, {"measurement": "stimulation of Vα14 NKT cells", "setting": "[1]", "result": "failed to stimulate"}]}
{"molecule": "CCCCCCCCCCCCCCCCCCCCCCCC(=O)N[C@@H](CO[C@H]1O[C@H](CO)[C@H](O)[C@H](O)[C@H]1O)[C@H](O)[C@H](O)CCCCC", "note": "[OCH]", "values": [{"measurement": "Th1/Th2 bias", "setting": "[2]", "result": "induces Th2 bias"}]}
{"molecule": "Galβ1-3Galα1-1′Cer", "values": [{"measurement": "CD1d-restricted, TCR-mediated activation of Vα14 NKT cells (ability to elicit natural killer cell activity)", "setting": "[1]", "result": "active"}]}
{"molecule": "CCCCCCCCCCCCCCCCCCCCCCCCCC(=O)N[C@@H](CO[C@H]1O[C@H](CO)[C@H](O)[C@H](O)[C@H]1O)[C@H](O)[C@H](O)CCCCCCCCCCCCCC", "note": "[α-GalCer, α-galactosylceramide]", "values": [{"measurement": "CD1d-restricted, TCR-mediated activation of Vα14 NKT cells (ability to elicit natural killer cell activity)", "setting": "[1]", "result": "active; also recorded: most active"}, {"measurement": "Th1/Th2 bias", "setting": "[2]", "result": "unbiased"}]}
{"molecule": "CCCCCCCCCCCCCCC[C@@H](O)[C@H](CO[C@H]1O[C@H](CO)[C@@H](O)[C@H](O)[C@H]1O)NC(=O)CCCCCCCCCCCCC", "note": "[AGL-563]", "values": [{"measurement": "MLR activity (stimulation of spleen cell proliferation by pretreated DCs)", "setting": "[3]", "result": "reduced, but did not abolish, activity"}]}
{"molecule": "ceramide", "values": [{"measurement": "CD1d-restricted, TCR-mediated activation of Vα14 NKT cells (ability to elicit natural killer cell activity)", "setting": "[1]", "result": "inactive"}]}
{"molecule": "3,4-deoxy α-GalCer", "values": [{"measurement": "CD1d-restricted, TCR-mediated activation of Vα14 NKT cells (ability to elicit natural killer cell activity)", "setting": "[1]", "result": "active"}]}
{"molecule": "CCCCCCCCCCCCCCC[C@@H](O)[C@H](CO[C@H]1O[C@H](CO)[C@H](O)[C@H](O)[C@H]1O)NC(=O)CCCCCCCCCCCCC", "note": "[AGL-517]", "values": [{"measurement": "MLR activity (stimulation of spleen cell proliferation by pretreated DCs)", "setting": "[3]", "result": "active"}]}
{"molecule": "Galα1-4Glcβ1-1′Cer", "values": [{"measurement": "CD1d-restricted, TCR-mediated activation of Vα14 NKT cells (ability to elicit natural killer cell activity)", "setting": "[1]", "result": "inactive"}]}
